Laboratory results from US5814627A, “3, 5-disubstituted and 3, 4, 5-trisubstituted 2-isoxazolines and isoxazoles, process for their preparation and their use as pharmaceuticals” (Hoechst Aktienegesellschaft, priority 1994, dated 1998).
Each block holds one compound with its values, some of them ahead of it.

Columns and labels:
adjuvant/arthritis model = assay: Test 6: antiarthritic effect in the adjuvant/arthritis model; assay type: in vivo, rat (Wistar-Lewis); details: Rattus norvegicus, po, 408 h, daily for 17 days, rat, read-out: Test 6 Paw volume (% inhibition)
Procedure: Male rats of a Wistar-Lewis strain (Mollegaard/Denmark) were used as experimental animals. The body weight is between 160 and 200 g. Subplantar injection of 0.1 ml of Freund's adjuvant (=6 mg of Mycobacterium butyricum suspension, Difco Lab./Detroit, Mich. USA, per ml of heavy white paraffin oil, Merck, Darmstadt) into the root of the tail resulted, on the 10th to 14th day of the experiment, in immunopathological processes and chronic inflammations, particularly in the form of arthritic and periarthritic symptoms, at other sites in the body (secondary lesions). The animals were fed ad libitum with the standard feed Altromin-R, from Altrogge, Lage, and provided with tap water. The animals were given 60 mg of codein per kg as an analgesic from the 14th day to the end of the experiment. The test substances were administered orally as a CMC suspension, in an injection volume of 1 ml/100 g of body weight, on each day (in all for 17 days), beginning on the day of the adjuvant administration. The volumes of each of the hind paws, and the body weight, were measured on the first and on the 18th day of the experiment. Diminution in the increase of paw volume, as compared with the untreated control group, served as the criterion of activity, with the two hind paws being averaged.

[1] = tested on: cyclooxygenase-dependent thrombocyte aggregation; assay: Test 5: Cyclooxygenase-dependent thrombocyte aggregation; assay type: cell-based, human; details: Homo sapiens, arachidonic acid as inducer, read-out: Test 5 residual activity (cyclooxygenase-dependent thrombocyte aggregation), percent of control
In short: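 Citrated human platelet-rich plasma was preincubated 10 min at 37 °C with test substance diluted 1:30 in 50 mM Tris-HCl pH 8.0, 90 mM NaCl. Aggregation was triggered with arachidonic acid (5 mg/ml, 20 μl) under 800 rpm stirring in an aggregometer. Values are tested concentration (μM) and residual activity as % of control.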

[2] = tested on: polymorphonuclear leucocytes (PMNL); assay: Test 1: Release of proteolytic activity from human PMNL; assay type: cell-based; details: Homo sapiens, PMNL, read-out: Test 1 residual activity (release of proteolytic activity), percent of control
Procedure: Isolation of polymorphonuclear leucocytes (PMNL) from human peripheral blood for carrying out tests 1 and 2 10 ml of human blood were diluted with 10 ml of HBSS (Serva) and underlaid with 15 ml of Lymphoprep (Dr. Molter GmbH, Heidelberg). […] A white ring, composed of mononuclear cells, is located between these two phases. The lowermost phase is composed of erythrocytes which are covered with a white layer of PMNL. The uppermost phase, and also the Lymphoprep and the white ring, were carefully removed using a syringe. The remaining sediment was carefully resuspended in 15 ml of 3% dextran in PM16 (mw: 485,000, Sigma, Deisenhofen). The suspension was then left to stand at room temperature for one hour. During this time, the erythrocytes sedimented while the PMNL remained in the supernatant. The supernatant was removed, diluted with an approximately equal volume of PM16, and centrifuged for 15 minutes at 400×g. Should the PMNL sediment be heavily contaminated with erythrocytes, it is necessary to carry out a hypotonic lysis. To do this, the sediment was resuspended in 750 μl of water. After exactly 15 seconds, the suspension was diluted with approximately 7 ml of PM16 and centrifuged for 10 minutes at 400×g. If necessary, this lysis was repeated once more. Otherwise, the PMNL sediment was resuspended in a suitable medium. 250 μl of PMNL (5·10^6 cells/ml of PBS containing 7.5 mM glucose) were incubated at 37° C. for 20 minutes with 1 μl of test substance. 1 μl of cytochalasin B (5 μg/ml of test mixture) was then added and the mixture was incubated at 37° C. for a further 5 minutes. Following the addition of 1 μl of […] necrosis factor alpha (TNF; 30 ng/ml of test mixture), the incubation was continued for 5 minutes. The release was started using 1 μl of fMLP (10 nmol/l of test mixture). After 60 minutes at 37° C., the reaction was terminated by cooling the samples down to 0° C. The samples were then centrifuged, and the supernatant was removed and frozen down. Cytochalasin B and fMLP were dissolved in DMSO and TNF was diluted with buffer. 50 μl of the supernatant were mixed with 175 μl of buffer (100 mM HEPES, pH 7.5; 500 mM NaCl) in a 96-well microtiter plate. Following the addition of 25 μl of substrate (methoxysuccinyl-[…]-nitroanilide), the extinction of each well was measured at 405 nm after 0, 5, 10, 15, 30 and 60 minutes. […] The interleukin is additionally indicated in test 4.

[3] = tested on: tumor cell line 20-10-5S (hybridoma cell line); assay: Test 8: Inhibition of tumor cell proliferation; assay type: cell-based; details: 48 h + 16 h tritiated thymidine incorporation; 20-10-5S cells
[4] = tested on: polymorphonuclear leucocytes (PMNL); assay: Test 2: Release of oxygen radicals from human PMNL; assay type: cell-based; details: read-out: Test 2 residual activity (release of oxygen radicals), percent of control
Procedure: Isolation of polymorphonuclear leucocytes (PMNL) from human peripheral blood for carrying out tests 1 and 2 10 ml of human blood were diluted with 10 ml of HBSS (Serva) and underlaid with 15 ml of Lymphoprep (Dr. Molter GmbH, Heidelberg). The sample was then centrifuged for 25 minutes at 400×g (1600 revolutions per minute, Minifuge 2, Heraeus, Osterode). […] A white ring, composed of mononuclear cells, is located between these two phases. The lowermost phase is composed of erythrocytes which are covered with a white layer of PMNL. The uppermost phase, and also the Lymphoprep and the white ring, were carefully removed using a syringe. The remaining sediment was carefully resuspended in 15 ml of 3% dextran in PM16 (mw: 485,000, Sigma, Deisenhofen). The suspension was then left to stand at room temperature for one hour. During this time, the erythrocytes sedimented while the PMNL remained in the supernatant. The supernatant was removed, diluted with an approximately equal volume of PM16, and centrifuged for 15 minutes at 400×g. Should the PMNL sediment be heavily contaminated with erythrocytes, it is necessary to carry out a hypotonic lysis. To do this, the sediment was resuspended in 750 μl of water. After exactly 15 seconds, the suspension was diluted with approximately 7 ml of PM16 and centrifuged for 10 minutes at 400×g. If necessary, this lysis was repeated once more. Otherwise, the PMNL sediment was resuspended in a suitable medium.
The PMNL were resuspended (5·10^6 cells/ml) in Dulbecco's PBS, supplemented with 7.5 mM glucose. Care must be taken to ensure that the PMNL are free of erythrocytes. 100 μl of PMNL, 700 μl of PBS+glucose and 100 μl of cytochrome C (9.38 mg/ml of PBS+glucose) were mixed in a semi-microcuvette. 100 μl of PMNL, 500 μl of PBS+glucose, 100 μl of cytochalasin B ([…]), 100 μl of TNF (0.05 ng) and 100 μl of cytochrome C (9.38 mg/ml of PBS+glucose) were mixed for the fMLP-induced release of oxygen. Measurements were made in a double-beam photometer meter (Perkin-Elmer 552 S) at a wavelength of 550 nm. The measurement range is 0-1 extinction units. The cuvettes were temperature-equilibrated to 37° C. The reference cuvette additionally contained 10 μl of SOD (6 mg of SOD/ml of PBS+glucose). Following a preincubation of 5 minutes, the reaction is started with 100 μl of inducer. The reaction is started with 1·10^-7 mol of fMLP.
(§1) The values in the table show the concentration of the test substance which was employed in μM and, besides this, the residual activity measured in percent based on the control, which was set to be 100%. The interleukin is additionally indicated in test 4.

[5] = tested on: PAF-induced asthma attack; assay: Test 7: antiasthmatic effect, PAF-induced asthma attack; assay type: in vivo; details: Cavia porcellus; i.d., 15 minutes before PAF; guinea pig
Procedure: Test 7: Testing for antiasthmatic effect
Anesthetized guinea pigs, which were cannulated in the jugular vein to allow injection of the PAF, were used for testing for antiasthmatic effect. The test preparations were also administered intravenously (i.v.), 5 min before PAF administration, into the blood stream through the same venous cannula, or else administered intraduodenally (i.d.), 15 minutes before the PAF, through an opening in the duodenum which had been installed and cannulated surgically. The bronchial width was recorded in an overflow pneumonogram before and after administering the preparation. Evaluation: ED50 in mg/kg i.d. as compared with the PAF-induced asthma attack.

[6] = tested on: IL-1α release from mononuclear cells; assay: Test 4: cytokine release from LPS-stimulated mononuclear cells, IL-1α; assay type: cell-based; details: Homo sapiens, read-out: Test 4 residual activity (IL-1α release), percent of control
Procedure: (§2) Test 4. Stimulation of the cytokine release
(§3) Isolation of mononuclear cells from human blood
(§4) 10 ml of human blood, stabilized with 1 ml of 3.8% sodium citrate solution, were diluted with 10 ml of PM16 (Serva, Heidelberg) and underlaid with 15 ml of Lymphoprep (Dr. Molter GmbH, Heidelberg). The samples were centrifuged, at room temperature for 40 minutes, at 400×g (1600 rpm, Minifuge 2, Heraeus, Osterode). The mononuclear cells are visible as a white ring at the Lymphoprep/plasma interface. This ring was carefully removed with a syringe, diluted with an equal volume of PM16, and centrifuged for 10 minutes at 400×g. The sediment was washed with approximately 10 ml of RPMI1640 (+300 mg/l L-glutamine, Gibco, Eggenstein) (Wallis, 1986). After the cells had been resuspended in approximately 1 ml of RPMI1640 (+300 mg/l L-glutamine+25 mM HEPES+100 μg/ml streptomycin+100 μg/ml penicillin), the cell density was determined using a Coulter Counter JT (Coulter Diagnostics) and adjusted to 5*10^6 /ml. Typically, the cells are composed of 90% lymphocytes and 10% monocytes.
230 μl of mononuclear cells were incubated, at 37° C.; 5% CO2 for 20-22 hours (5 hours in the case of IL-6), with 10 μl of test substance ([…]) and 10 μl of lipopolysaccharide (LPS; 500 μg dissolved in 1 ml of DMSO and diluted 1/10 with water prior to beginning the test; from Salmonella abortus equi, Sigma, Deisenhofen). The samples were cooled down to 0° C. in an ice bath and centrifuged in a Sigma centrifuge (2 minutes; 2000 rpm). Aliquots of the supernatant are measured with an ELISA (Biermann, Bad Nauheim). The abbreviation IL stands for interleukin and TNF for tumor necrosis factor alpha.
as §1

[7] = tested on: TNFα release from mononuclear cells; assay: Test 4: cytokine release from LPS-stimulated mononuclear cells, TNFα; assay type: cell-based; details: Homo sapiens, read-out: Test 4 residual activity (TNFα release), percent of control
Procedure: as §2, §3, §4
230 μl of mononuclear cells were incubated, at 37° C.; 5% CO2 for 20-22 hours (5 hours in the case of IL-6), with 10 μl of test substance (10 μM in DMSO/water, 1/10) and 10 μl of lipopolysaccharide (LPS; 500 μg dissolved in 1 ml of DMSO and diluted 1/10 with water prior to beginning the test; from Salmonella abortus equi, Sigma, Deisenhofen). The samples were cooled down to 0° C. in an ice bath and centrifuged in a Sigma centrifuge (2 minutes; 2000 rpm). Aliquots of the supernatant are measured with an ELISA (Biermann, Bad Nauheim). The abbreviation IL stands for interleukin and TNF for tumor necrosis factor alpha.
as §1

Structure (SMILES): CC(=O)C1CC(c2cc(C(C)(C)C)c(O)c(C(C)(C)C)c2)=NO1 (centres unmarked) [Example 13]
ED50 [5]: ~50 mg/kg
inhibition in vivo at 50 mg/kg (adjuvant/arthritis model; 50 mg/kg orally): 84%
activity at 10 µM [1]: 98%
activity at 10 µM [2]: 77%
activity at 100 µM [2]: 20%
IC50 [3]: 6.1 µM
activity at 10 µM [4]: 65%
activity at 25 µM ([4]; 25 μM): 22%

Structure (SMILES): CC(O)C1CC(c2cc(C(C)(C)C)c(O)c(C(C)(C)C)c2)=NO1 (centres unmarked) [Example 18]
activity at 10 µM [6]: 89%
activity at 100 µM ([6]; 100 μM): 36%
IC50 [3]: 5 to 10 µM

Structure (SMILES): CCOC(=O)C(C)(C)OCc1cc(-c2cc(C(C)(C)C)c(O)c(C(C)(C)C)c2)no1 [Example 35]
activity at 100 µM ([1]; 100 μM): 94%
activity at 10 µM [6]: 84%

More lines, main results first:

IC50 [3]: < 5 µM
Structure (SMILES): C[C@@H](O)[C@@H]1CC(c2cc(C(C)(C)C)c(O)c(C(C)(C)C)c2)=NO1 (relative stereo) [Example 19]
inhibition in vivo at 25 mg/kg (adjuvant/arthritis model; 25 mg/kg orally): 85%
activity at 10 µM [1]: 100%
activity at 10 µM [2]: 78%
activity at 100 µM [2]: 20%
activity at 10 µM [4]: 94%

IC50 [3]: < 5 µM
Structure (SMILES): CC(C)(C)c1cc(-c2cc(CCCO)on2)cc(C(C)(C)C)c1O [Example 26]
activity at 10 µM [1]: 94%
activity at 10 µM [7]: 88%

IC50 [3]: 30 µM
Structure (SMILES): CC(=O)c1cc(-c2cc(C(C)(C)C)c(O)c(C(C)(C)C)c2)no1 [Example 59, 3-(4-Hydroxy-3,5-di-tert-butylphenyl)-5-acetylisoxazole]
ED50 [5]: 1 to 3 mg/kg
activity at 1 µM ([2]; 1 μM): 91%
activity at 10 µM [2]: 61%
activity at 100 µM [2]: 35%
activity at 1 µM ([4]; 1 μM): 135%
activity at 10 µM [4]: 48%
